These results are taken from US12268798B2, “Method for screening of unpleasant odor masking agents” (Takasago International Corporation, priority 2020, dated 2025).

Test [1] addresses T1, olfactory receptor OR2L3 (Homo sapiens, UniProt Q8NG85).
T1 construct: N-terminal 20 amino acid residues of bovine rhodopsin (Rho tag); expressed in transfected cells; host or cells: HEK293T cells, transient lipofection with the pME18S expression vector, an RTP1S vector and the luciferase reporter vectors
T1 sequence (Q8NG85 1-312): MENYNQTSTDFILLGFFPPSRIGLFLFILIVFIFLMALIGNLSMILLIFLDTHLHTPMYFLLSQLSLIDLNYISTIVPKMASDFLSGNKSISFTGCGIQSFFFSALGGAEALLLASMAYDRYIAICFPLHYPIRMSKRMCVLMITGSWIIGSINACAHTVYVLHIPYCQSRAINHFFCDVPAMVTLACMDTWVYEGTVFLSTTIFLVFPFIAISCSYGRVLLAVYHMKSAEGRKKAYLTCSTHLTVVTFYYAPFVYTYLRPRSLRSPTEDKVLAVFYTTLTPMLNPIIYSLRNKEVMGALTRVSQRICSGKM
The test can be described thus: Luciferase reporter gene assay: response of olfactory receptor OR2L3 to unpleasant odor-causing substance. In kind it is cell-based. The conditions noted are these: various concentrations; HEK293T cells expressing OR2L3; FIGS. 1 to 5. The method, then: A human olfactory receptor gene was obtained by cloning according to the PCR method using Human Genomic DNA: Female (Promega) based on the sequence information registered in GenBank. The N-terminal 20 amino acid residues of bovine rhodopsin were incorporated into a pME18S vector, and the obtained human olfactory receptor gene was further incorporated downstream thereof, thereby obtaining a human olfactory receptor gene expression vector.
(§1) 0.05 μg of the human olfactory receptor gene expression vector, 0.01 μg of an RTP1S vector, 0.01 μg of a firefly luciferase vector pGL4.29 containing a cAMP-responsive sequence promoter (Promega), and 0.005 μg of a Renilla luciferase vector pGL4.74 containing a thymidine kinase promoter (Promega) were dissolved in 10 μL of Opti-MEM I (gibco) to obtain a gene solution (for one well). 100 μL of HEK293T cells were seeded in each well of a 96-well plate (Biocoat manufactured by Corning) so as to reach confluency after 24 hours. According to the directions for use of Lipofectamine 3000, by the lipofection method, the gene solution was added to each well to perform gene transfer to cells, and culturing was performed under 5% carbon dioxide atmosphere at 37° C. for 24 hours.
(§2) After removing the culture medium, 50 μL of CD293 medium (gibco) (20 μM L-glutamine added) including measured concentration of an aroma compound as a sample was added to each well, and stimulation was performed for 3 hours. After that, the luciferase activity was measured according to the directions for use of Dual-Luciferase Reporter Assay System (Promega). The response strength of the olfactory receptor was expressed by the Fold Increase value, which is obtained by dividing the luciferase activity generated by stimulation of the aroma compound by the luciferase activity generated in the test system not including the aroma compound.
(§3) Responses of the olfactory receptor OR2L3 to skatole, indole, α-terpineol, 4-terpineol or p-methylacetophenone as a typical example of the unpleasant odor-causing substance were measured with various concentrations by means of luciferase reporter gene assay. […] Meanwhile, in the Mock test (using cells in which OR2L3 was not expressed), no response was shown. That is, it was shown that OR2L3 specifically responds to the respective unpleasant odor-causing substances.
(A reporter such as luciferase makes a cellular process visible.)

The test system of test [2] is HEK293T cells in which OR2L3 was not expressed (Mock). The test can be described thus: Mock test, luciferase reporter gene assay using cells in which OR2L3 was not expressed. In kind it is cell-based, human. The method, then: as §1, §2, §3
Test [3] deals with T1, olfactory receptor OR2L3. The test can be described thus: Luciferase reporter gene assay: effect of suppressing the response of OR2L3 to unpleasant odor-causing substance. In kind it is cell-based. Particulars: for Effect of suppressing the response of OR2L3 to indole: test substance mixed with indole, FIGS. 10 to 12; for Effect of suppressing the response of OR2L3 to skatole: test substance mixed with skatole, ratio of Fold Increase value, FIGS. 6 to 9. On the procedure: as §1
as §2, with “compound. […]” for “compound.”
With respect to unpleasant odor masking agents (group of candidate substances) including Group A shown in Table 1, the effects of suppressing the response of OR2L3 that strongly responded to unpleasant odors were measured by means of luciferase reporter gene assay.
In luciferase reporter gene assay, skatole and Guava coeur (Ethyl 3-mercapto-2-methylbutyrate) were used by being mixed with a sample. The Fold Increase value in the test in which Guava coeur was not mixed was regarded as 1, and the ratio of the Fold Increase value in the test in which Guava coeur was mixed was obtained.
Guava coeur in the evaluation of the effect of suppressing the response of OR2L3 was replaced by Dextramber® (1-(2,2,6-trimethylcyclohexyl) hexan-3-ol, registered trademark), and the test was conducted in the same manner. […] Similarly, Guava coeur was replaced by Hindinol® (2-methyl-4-(2,2,3-trimethyl-3-cyclopentenyl)-2-buten-1-ol, registered trademark) and the test was conducted.
Regarding the unpleasant odor in the evaluation of the effect of suppressing the response of OR2L3, skatole was replaced by indole, and the test was conducted in the same manner. […]

In the next test the test system is skatole odor. Description: Sensory evaluation of unpleasant odor suppression ability (skatole), panel of 20 persons. The format is in vivo, human. Particulars: for Skatole strength: average rating of 20 persons, scale 0 to 10, unpleasant odor alone rated 8, 10 μL skatole diluted 100-fold plus 1 μL test substance, 1 hour at room temperature; for Effect of suppressing the unpleasant odors (in words): unpleasant odors = skatole or indole. The method, then:
(§4) The unpleasant odor suppression ability of test substances having activity to inhibit receptor action was confirmed by sensory evaluation. A cotton ball on which 10 μL of skatole or indole diluted 100-fold with triethyl citrate as an unpleasant odor and 1 μL of a test substance were dropped was put into a plastic bottle (OZO-40 manufactured by Takemoto Yohki Co., Ltd.). The bottle was allowed to stand at room temperature for 1 hour to sufficiently volatilize odor molecules therein. The sensory evaluation test was conducted by a panel consisting of 20 persons, who made evaluation as follows: the odor strength in the case where the unpleasant odor was dropped solely was rated as 8, and the unpleasant odor strength in the case where the test substance was mixed was rated as from 0 (the unpleasant odor is not smelled) to 10 (the unpleasant odor is smelled very strongly). The average value was calculated from obtained numerical values.

For a further test, the system named is indole odor. Description: Sensory evaluation of unpleasant odor suppression ability (indole), panel of 20 persons. In kind it is in vivo, human. The conditions noted are these: for Indole strength: average rating of 20 persons, scale 0 to 10, unpleasant odor alone rated 8, 10 μL indole diluted 100-fold plus 1 μL test substance, 1 hour at room temperature. On the procedure:
as §4

As to `CC1=CCC(C(C)(C)O)CC1` (stereo not drawn) [α-terpineol], the “Response of the olfactory receptor OR2L3 (Fold Increase)” value (“Response … (Fold Increase)” for short) at olfactory receptor OR2L3 [1] is given as “concentration-dependent responses”. For the same compound, in test [2], the “Response in the Mock test” value is listed as “no response”.

Consider `CC(=CCC1CC=C(C)C1(C)C)CO` (stereo not shown) [2-methyl-4-(2,2,3-trimethyl-3-cyclopentenyl)-2-buten-1-ol], for which, on olfactory receptor OR2L3 [3], the “Effect of suppressing the response of OR2L3 to indole” value (“Effect … to indole” for short) is “concentration-dependently reducing” and the “Effect of suppressing the response of OR2L3 to skatole” value (“Effect … to skatole” for short) was “concentration-dependently reducing”. The Skatole strength with skatole odor was determined as 3.6. For the same compound, the “Effect of suppressing the unpleasant odors (in words)” value (from here on “Effect … (in words)”) with skatole odor (sensory evaluation) is given as “suppress”. Besides, in the test with indole odor, the Indole strength amounted to 4.1.

On to `CCOC(=O)C(C)C(C)S` (stereo not shown) [Ethyl 3-mercapto-2-methylbutyrate], for which, at olfactory receptor OR2L3 [3], the “Effect … to indole” value is on record as “concentration-dependently reducing” and the “Effect … to skatole” value is “concentration-dependently reducing”. Further, the Skatole strength with skatole odor was 3.0. For the same compound, the “Effect … (in words)” value with skatole odor (sensory evaluation) is “suppress”. For the same compound, the Indole strength with indole odor turned out to be 3.3.

With Methyl fenchol, the “Effect … to skatole” value on olfactory receptor OR2L3 [3] is given as “suppresses”. For the same compound, in the test with skatole odor, the Skatole strength was determined as 3.3. For the same compound, the “Suppression of the strength of skatole odor (in words)” value in the test on skatole odor (sensory evaluation) is “significantly suppressed”. In addition, in the test on indole odor, the Indole strength is listed as 3.1. The “Suppression of the strength of indole odor (in words)” value in the test with indole odor (sensory evaluation) is recorded as “suppressed”.

For the compound `CC1CCC(C(C)(C)S)C(=O)C1` (stereo not shown) [p-mentha-8-thio1-3-one, p-mentha-8-thiol-3-one], the Skatole strength with skatole odor came to 3.9. The “Effect … (in words)” value in the test with skatole odor (sensory evaluation) is “suppress”. Further, the Indole strength in the test with indole odor amounted to 3.7.

With `CCCCCCOC(=O)c1ccccc1O` [Hexyl salicylate, hexyl salicylate, reference compound], on olfactory receptor OR2L3 [3], the “Effect … to skatole” value is listed as “did not suppress”. For the same compound, the Skatole strength with skatole odor stood at 6.9. Moreover, the Indole strength with indole odor is on record as 6.7.

Turning to `c1ccc2[nH]ccc2c1` [indole], at olfactory receptor OR2L3 [1], the “Response … (Fold Increase)” value is “concentration-dependent responses”. Also, in test [2], the “Response in the Mock test” value is recorded as “no response”.

`CC(c1ccccc1)C1CC1C(C)(C)O` (stereo not shown) [Dimethyl-2-(1-phenylethyl)cyclopropylmethanol]: in the test with skatole odor, the Skatole strength came out at 2.5. Moreover, the “Effect … (in words)” value in the test on skatole odor (sensory evaluation) is “suppress”. Moreover, the Indole strength in the test with indole odor was 2.4.

`O=C1CCCC=CCCCCCCCCCC1` [5-cyclohexadecenone]: the Skatole strength in the test on skatole odor was found to be 4.2. Also, the “Effect … (in words)” value in the test on skatole odor (sensory evaluation) is reported as “suppress”. In the test on indole odor, the Indole strength turned out to be 3.6.

For `CC/C=C\CCOC(=O)CCCCC` [cis-3-hexenyl hexanoate, reference compound], at olfactory receptor OR2L3 [3], the “Effect … to skatole” value is recorded as “concentration-dependently reducing”.

In the case of `CC(=O)c1ccc(C)cc1` [p-methylacetophenone], the “Response … (Fold Increase)” value at olfactory receptor OR2L3 [1] is recorded as “concentration-dependent responses”. In addition, in test [2], the “Response in the Mock test” value was “no response”.

`CC(C)(C)C1CCC(O)CC1` (stereo not shown) [4-t-butyleyclohexanol, 4-t-butylcyclohexanol, reference compound]: at olfactory receptor OR2L3 [3], the “Effect … to skatole” value was “did not suppress”. The Skatole strength with skatole odor turned out to be 6.3. For the same compound, the Indole strength in the test with indole odor is reported as 6.0.

As for `Cc1c[nH]c2ccccc12` [skatole], on olfactory receptor OR2L3 [1], the “Response … (Fold Increase)” value is “concentration-dependent responses”. Besides, the “Response in the Mock test” value in test [2] was “no response”.

Turning to `CCCC(O)CCC1C(C)CCCC1(C)C` (stereo not shown) [1-(2,2,6-trimethylcyclohexyl)hexan-3-ol], at olfactory receptor OR2L3 [3], the “Effect … to indole” value was “concentration-dependently reducing” and the “Effect … to skatole” value is recorded as “concentration-dependently reducing”. In addition, the Skatole strength in the test on skatole odor came to 4.0. The “Effect … (in words)” value in the test with skatole odor (sensory evaluation) is recorded as “suppress”. Besides, the Indole strength in the test on indole odor is on record as 3.9.

For the compound `CC1=CCC(O)(C(C)C)CC1` (stereo not shown) [4-terpineol], the “Response … (Fold Increase)” value on olfactory receptor OR2L3 [1] is “concentration-dependent responses”. Also, the “Response in the Mock test” value in test [2] is on record as “no response”.
